According to paper PMC5992379 (Frontiers in Molecular Neuroscience, 2018):
Several values for one entry are separate records, joined by “and”; a condition that tells them apart may be missing. Equal entries are not always repeated. Where two headings read alike, the source gives them in different places.

Tests used:
[1] = test system: BALB/c mice; details: for effect of antagonist on the antiallodynia effect of WOBE437, 3 days treatment / effect of antagonist on the antiallodynia effect of WOBE437, single dose / effect of antagonist on the antiinflammatory (edema) effect of WOBE437, 3 days treatment: antagonist i.p. 30 min before WOBE437 10 mg/kg i.p.
Procedure: BALB/c mice were anesthetized with xylazine/ketamine (5 and 10 mg/kg, respectively) and subsequently monoarthritis was induced by intra-articular injection of complete Freund’s adjuvant (CFA, 40 μL; Sigma-Aldrich, St. Louis, MO, United states) into the right knee joint. The inflammation was allowed to develop for 14 days prior to pharmacological treatments starting at day 15 for 1 or 3 days, respectively. Mechanical sensitivity (allodynia) and knee diameter (edema) were evaluated 1 h post treatment in the ipsilateral and contralateral knees. Articular sensitivity was evaluated using a digital algometer (Bioseb, United states). […] A cut-off force of 300 g was considered to avoid damage in the tissue. The measurements were done in triplicates and the average was considered for the statistical analysis. To evaluate the degree of inflammation, knee diameter was measured in both extremities using a digital micrometer (Mitutoyo, United states). […] Indomethacin (5 mg/kg; Sigma-Aldrich, United states) was used as a reference drug (positive control). For all the compounds, dimethylsulfoxide (DMSO) was used as vehicle (20 μL, i.p.).

[2] = test system: BALB/c male mice; experiment: Hot plate test (acute pain) after oral administration; type: in vivo
Procedure: The test was performed using a clean 54–56°C hot plate (Thermo Fisher Scientific, United states) with a Plexiglas cylinder. The latency to show the first nociceptive response (paw lick or foot shake) was measured.

[3] = for WOBE437 brain levels / WOBE437 plasma levels: 20 min after gavage
Procedure: The mice were sacrificed by decapitation after gavage administration. Brain, blood, liver, kidney, and spleen were collected for the LC-MS/MS analyses. All tissues were briefly washed with ice cold PBS and immediately snap-frozen and stored at -80°C. Whole brain samples were dissected between the hemispheres. Blood samples were immediately centrifuged to obtain plasma, which was stored at -80°C.
Samples extractions and LC-MS/MS measurements we performed as previously described ([Chicca et al., 2017]). Briefly, tissues were weighted and transferred in to extraction tubes containing three steel beads and 0.1 M formic acid. Tissues were homogenized and rapidly transferred to glass tubes containing 1.5 mL of ethyl acetate:hexane (9:1) 0.1% formic acid and internal standards (ISs). Samples were centrifuged and the organic phase was recovered. After evaporation, the extracts were reconstituted in 200 μL of ACN:ddH2O (8:2). 10 μL of the solution were injected in the LC-MS/MS system using the same LC and ionization protocols as described ([Chicca et al., 2017]).

[4] = for Clearance: 1 μM WOBE437, preliminary; for MAB (estimated maximal bioavailability): from liver microsome clearance
Procedure: Human or mice microsome clearance experiment were carried out as according to a previously describe protocol ([Soethoudt et al., 2017]). […] After 1, 3, 6, 9, 15, 25, 35, and 45 min, 40 μL of the preparation was transferred and quenched with 3:1 (v/v) acetonitrile containing internal standards. Samples were then cooled and centrifuged before analysis by LC-MS/MS. Log peak area ratios (test compound peak area/internal standard peak area) are plotted against incubation time using a linear fit. The calculated slope is used to determine the intrinsic clearance. Data are obtained from single experiments measured with multiple time-points.

[5] = test system: BALB/c male mice; experiment: Tetrad test; type: in vivo; details: 50 mg/kg p.o., 1 h after gavage
Procedure: The tetrad test was performed in the following order: rectal temperature, catalepsy, locomotion and analgesia. Rectal temperature was measured before (basal) and 1 h post gavage administration by using a thermocouple probe (Physitemp Instruments Inc., United states) and results were reported as the difference (Δ) between both temperatures. The bar test was used to evaluated catalepsy by placing the mouse in an imposed position with both forelimbs resting on a bar of 4 cm high; the end point of catalepsy was considered when both front limbs were removed or remained over 120 s. Locomotor activity was determined by placing the mouse on a rotarod (Erweka, Germany) at 4 rpm, the latency to fall was measured with a cut-off time of 120 s. Each mouse was previously trained to walk over the rotarod for at least 120 s. Catalepsy and locomotion were measured in three trials. Analgesia was evaluated with the hot plate test, each mouse was placed in a 54–56°C hot plate (Thermo Fisher Scientific, United states) with a Plexiglas cylinder, the latency to first nociceptive response (paw lick or foot shake) was measured.

[6] = test system: endocannabinoid levels (AEA, 2-AG); experiment: Endocannabinoid, N-acylethanolamine and WOBE437 levels by LC-MS/MS after the hot plate test; type: in vivo, BALB/c male mice
Text: The mice were sacrificed by decapitation after gavage administration. […] Whole brain samples were dissected between the hemispheres.
Samples were centrifuged and the organic phase was recovered.

[7] = test system: BALB/c mice; experiment: Open field test in monoarthritic mice; type: in vivo; details: WOBE437 i.p.
Procedure: Potential motor changes were evaluated in an open field box (40 cm × 40 cm × 30 cm, Plexiglas). The mice were individually placed in the center and allowed to move freely for 5 min. The locomotion activity was recorded with the OpenFieldTest^© ([Reynoso-Moreno et al., 2017]) and traveled distance was evaluated automatically. After every experiment, the box was cleaned with 70% ethanol to remove odors.

[8] = test system: Cnr1, Cnr2, Nape-pld, Dagla; experiment: Real-time PCR of ECS genes after 3 days treatment in the monoarthritis model; type: in vivo, BALB/c mice; details: 10 mg/kg i.p., somatosensory cortex, thalamus, articular tissue
Procedure: Total RNA extraction and reverse transcription were carried out with a previously described protocol ([Castro-Torres et al., 2015]). The kit LightCycler® FastStart DNA Master^PLUS SYBR Green I (Roche, United states) was used for the real-time PCR, according to manufacturer protocol, and the reaction was performed in the LightCycler 2.0 equipment (Roche, United states). The relative gene expression was calculated by using the method known as 2ˆ(-ΔΔCt) ([Livak and Schmittgen, 2001]). ΔΔCt was calculated using the following formula:
(1) ΔΔCt=(CtTE−CtHE)−(CtTC−CtHC)
Finally 2ˆ(-ΔΔCt) was calculated to obtain the fold change of gene expression. Every sample (n = 6-15, per group and region) was analyzed in duplicated and the mean value was considered for ΔΔCt calculation. Beta-actin was used as the housekeeping gene and mean of vehicle group was used as a calibrator. Sequences and size products of the primers for beta actin (Actb) cannabinoid CB1 receptor (Cnr1), cannabinoid CB2 receptor (Cnr2), diacylglycerol lipase alpha (Dagla), N-acylphosphatidylethanolamine specific phospholipase D (Nape-pld) are shown in Table 1.

[9] = test system: BALB/c male mice; design: method as in Chicca et al., 2017; details: i.p.; ref Chicca et al., 2017; cited from earlier work
[10] = 50 mg/kg p.o., 1 h after gavage

SR144528
effect of antagonist on the antiallodynia effect of WOBE437, 3 days treatment ([1]; 3 days): fully abolished | effect of antagonist on the antiallodynia effect of WOBE437, single dose ([1]; single dose): completely prevented

Cc1c(C(=O)NN2CCCCC2)nn(-c2ccc(Cl)cc2Cl)c1-c1ccc(Cl)cc1 [rimonabant]
effect of antagonist pre-treatment on the antinociceptive effect of WOBE437 ([2]; rimonabant 5 mg/kg i.p. 30 min before WOBE437 50 or 100 mg/kg p.o.): completely abolished | effect of antagonist on the antiallodynia effect of WOBE437, 3 days treatment ([1]; 3 days): fully abolished | effect of antagonist on the antiinflammatory (edema) effect of WOBE437, 3 days treatment ([1]; 3 days): only partially prevented | effect of antagonist on the antiallodynia effect of WOBE437, single dose ([1]; single dose): did not block

CCCCCCC/C=C/C=C/C(=O)NCCc1ccc(OC)c(OC)c1 [WOBE437]
WOBE437 brain levels ([3]; 10 mg/kg p.o.): 24.7 ± 25.3 pmol/g | WOBE437 plasma levels ([3]; 10 mg/kg p.o.): 47.3 ± 32.5 pmol/mL | apparent Cmax in brain ([3]; 50 mg/kg p.o.): ~500 pmol/g and 471.7 ± 182.6 pmol/g | apparent volume of distribution (Vd) at Cmax ([3]; 50 mg/kg p.o.): 80.4 L/kg | apparent volume of distribution (Vd) at the steady state ([3]; 50 mg/kg p.o.): 609 L/kg | factor of reduction of hepatic concentration between 20 and 40 min ([3]; 50 mg/kg p.o.): 4 | highest concentration in kidney ([3]; 50 mg/kg p.o.): 2277 ± 916 pmol/g | highest concentration in spleen ([3]; 50 mg/kg p.o.): 1030 ± 339 pmol/g | time after which WOBE437 is cleared from the brain ([3]; 50 mg/kg p.o.): approximately 180 min | tmax in kidney, liver, and spleen ([3]; 50 mg/kg p.o.): ≤ 20 min | brain levels after p.o. as compared to i.p. ([3]; 50 mg/kg p.o. vs 10 mg/kg i.p.): approximately 10 times lower | highest concentration in liver ([3]; 50 mg/kg p.o., 20 min): 4720 ± 3273 pmol/g | WOBE437 brain levels ([3]; 50 mg/kg p.o.): 534.5 ± 109.9 pmol/g | WOBE437 plasma levels ([3]; 50 mg/kg p.o.): 1731.5 ± 703.4 pmol/mL | hepatic concentration at 40 min ([3]; 50 mg/kg p.o., 40 min): 1080 pmol/g | WOBE437 concentration in brain 3 h after administration ([3]; 50 mg/kg p.o., 3 h): 18 pmol/g | Brain t1/2 ([3]; 50 mg/kg p.o., Figure 1B): 62.7 min | Plasma t1/2 ([3]; 50 mg/kg p.o., Figure 1B): 19.5 min | estimated concentration in brain ([3]; 50 mg/kg p.o., equivalent of brain Cmax): 399.7 ± 154.7 nM | Cmax ([3]; read-out: apparent Cmax in plasma, 50 mg/kg p.o.): ~2000 nM and 1930 nM | Clearance ([4]; human liver microsomes): 0.657 mL/min/kg | MAB (estimated maximal bioavailability) ([4]; humans): 4% | MAB (estimated maximal bioavailability) ([4]; mice): 17% | Clearance ([4]; mouse liver microsomes): 0.174 mL/min/kg | increase of pain threshold vs vehicle [2, 10]: 61.7% | pain threshold (latency to first nociceptive response) [2, 10]: 9.4 ± 1.9 s | pain threshold (latency to first nociceptive response) ([2]; 100 mg/kg p.o., 1 h after gavage): 11.7 ± 2.6 s | overall bioavailability compared to the i.p. administration route ([2]; from effective doses in hot plate test, 50 mg/kg p.o. vs 10 mg/kg i.p.): 20% | estimated effective dose (ED50) ([2]; p.o., hot plate): 42.5 ± 3.9 mg/kg | minimum dose necessary to significantly increase the pain threshold ([2]; p.o., hot plate): 50 mg/kg | antinociception in tetrad test (hot plate) [5]: significant antinociception | motor coordination (rotarod) [5]: No statistical differences | change in body temperature ([5]; not statistically different): -0.8 ± 0.8 °C | latency of catalepsy ([5]; not statistically different): 10.5 ± 10.6 s | 2-AG levels in plasma ([6]; 25 mg/kg p.o., 1 h): 21.4 ± 4.5 pmol/mL | 2-AG levels in plasma ([6]; 50 mg/kg p.o., 1 h): 22.6 ± 4.8 pmol/mL | 2-AG levels in somatosensory cortex ([6]; 50 mg/kg p.o., 1 h): no changes | AEA and 2-AG levels in total brain ([6]; 50 mg/kg p.o., 1 h): tendency to increase | AEA levels in somatosensory cortex ([6]; 50 mg/kg p.o., 1 h): significant increase | concentration of AEA in plasma ([6]; 50 mg/kg p.o., 1 h): 2.2 ± 0.3 pmol/mL | 2-AG concentration in total brain ([6]; 50 mg/kg p.o., 1 h, tendency, not significant): 13.9 ± 2.6 nmol/g | 2-AG levels in plasma ([6]; 100 mg/kg p.o., 1 h): 23.8 ± 5.7 pmol/mL | increase of 2-AG levels in plasma ([6]; 25, 50, and 100 mg/kg p.o., vs control): 40% | levels of WOBE437 in somatosensory cortex, total brain and plasma ([6]; BALB/c mice, 1 h after p.o.): in the same range as in male C57BL6/J mice | levels of N-acylethanolamines other than AEA (PEA, OEA, LEA) ([6]; somatosensory cortex, total brain or plasma, 1 h after p.o.): No changes | reduction in allodynia as compared to the contralateral knee ([1]; 10 mg/kg i.p., 3 days treatment): 52% | reduction of inflammation (edema) ([1]; 10 mg/kg i.p., 3 days treatment, as compared to the contralateral knee): 58% | knee diameter ([1]; 10 mg/kg i.p., 3 days treatment, ipsilateral knee): 5.3 ± 0.4 mm | allodynia after single dose ([1]; 10 mg/kg i.p., single dose, 1 h post treatment): significantly decrease allodynia | allodynia and edema at lower doses ([1]; 2.5 and 5.0 mg/kg i.p.): did not show any significant changes | spontaneous motor activity (travel distance) [7]: without significant observable changes | expression of Cnr1, Cnr2, Dagla and Nape-pld [8]: did not lead to any significant change | fully effective dose in the hot plate test upon systemic administration [9]: 10 mg/kg

Oc1cc2c(cc1O)CN(C(=S)NCCc1ccc(Cl)cc1)CCC2 [capsazepine]
effect of antagonist on the antiallodynia effect of WOBE437, single dose ([1]; single dose): completely prevented | tolerability of the antagonist together with 3 days WOBE437 treatment ([1]; capsazepine with WOBE437 10 mg/kg i.p., 3 days): unexpected hypersensitivity

O=C(Nc1ccccc1)c1cc([N+](=O)[O-])ccc1Cl [GW9662]
effect of antagonist on the antiallodynia effect of WOBE437, 3 days treatment ([1]; 3 days): fully abolished | effect of antagonist on the antiinflammatory (edema) effect of WOBE437, 3 days treatment ([1]; 3 days): only partially prevented | effect of antagonist on the antiallodynia effect of WOBE437, single dose ([1]; single dose): did not block
